Measured values published in US20230141101A1, “PDE4 INHIBITOR COMPOUND AND MEDICAL USE THEREOF” (Suzhou Longbotai Pharmaceuticals Co., Ltd., priority 2020, published 2023).

How the values were obtained:
Type in all cases: biochemical
Details in all cases: 20 nM
PDE4A1A = molecular target: T1, PDE4A1A (Homo sapiens, UniProt P27815); assay: PDE4 inhibitory activity assay (FAM-cAMP enzymatic reaction), PDE4A1A
T1 construct: purchased BPS 60040
Summary of the method: (§1)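 Read-out: fluorescence-based detection of FAM-cAMP turnover on a multilabel counter, with IC50 derived by fitting inhibition rates. The reaction ran 30 min at room temperature after a 15-min enzyme–compound preincubation, followed by stopping and 60 min further incubation.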

PDE4B1 = molecular target: T2, PDE4B1 (Homo sapiens, UniProt Q07343); assay: PDE4 inhibitory activity assay (FAM-cAMP enzymatic reaction), PDE4B1
T2 construct: purchased BPS 60041
Summary of the method: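 Each isoform is incubated with test compound for 15 min at room temperature before FAM-cAMP substrate starts a 30-min reaction.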

PDE4D2 = PDE4D2 (Homo sapiens, UniProt Q08499); assay: PDE4 inhibitory activity assay (FAM-cAMP enzymatic reaction), PDE4D2
Summary of the method: as §1

T1 sequence (P27815 1-647 isoform P27815-4): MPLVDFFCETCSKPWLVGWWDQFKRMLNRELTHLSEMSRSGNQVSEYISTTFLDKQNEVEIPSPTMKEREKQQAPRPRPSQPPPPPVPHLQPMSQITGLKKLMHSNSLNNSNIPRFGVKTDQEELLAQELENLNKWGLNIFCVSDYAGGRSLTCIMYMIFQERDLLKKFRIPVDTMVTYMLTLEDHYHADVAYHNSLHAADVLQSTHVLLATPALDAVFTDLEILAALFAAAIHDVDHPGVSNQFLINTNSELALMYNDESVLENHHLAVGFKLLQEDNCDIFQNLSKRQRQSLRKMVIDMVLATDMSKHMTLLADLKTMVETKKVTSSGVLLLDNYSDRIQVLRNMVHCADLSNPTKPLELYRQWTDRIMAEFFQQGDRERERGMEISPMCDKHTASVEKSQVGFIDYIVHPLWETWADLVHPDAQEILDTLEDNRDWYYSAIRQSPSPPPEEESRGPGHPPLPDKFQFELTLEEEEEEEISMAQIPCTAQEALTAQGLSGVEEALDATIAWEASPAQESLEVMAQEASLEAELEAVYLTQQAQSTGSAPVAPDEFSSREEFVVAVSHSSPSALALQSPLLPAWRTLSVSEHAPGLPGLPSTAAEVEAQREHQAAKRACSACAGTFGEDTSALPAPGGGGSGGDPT
Chain of PDE4D2 (Q08499 303-809): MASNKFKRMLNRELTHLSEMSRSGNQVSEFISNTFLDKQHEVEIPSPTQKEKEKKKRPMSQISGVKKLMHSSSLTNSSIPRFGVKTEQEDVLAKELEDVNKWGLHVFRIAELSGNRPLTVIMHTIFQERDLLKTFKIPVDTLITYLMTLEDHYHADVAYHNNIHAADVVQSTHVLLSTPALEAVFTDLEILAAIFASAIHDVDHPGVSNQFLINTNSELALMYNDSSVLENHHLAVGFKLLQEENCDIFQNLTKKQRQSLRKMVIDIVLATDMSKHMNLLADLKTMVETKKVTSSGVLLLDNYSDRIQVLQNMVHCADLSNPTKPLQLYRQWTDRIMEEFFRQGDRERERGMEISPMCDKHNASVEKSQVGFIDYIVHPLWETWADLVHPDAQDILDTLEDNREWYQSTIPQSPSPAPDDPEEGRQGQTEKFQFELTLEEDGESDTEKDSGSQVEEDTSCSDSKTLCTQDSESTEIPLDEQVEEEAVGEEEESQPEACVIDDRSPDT
T2 sequence (Q07343 whole entry): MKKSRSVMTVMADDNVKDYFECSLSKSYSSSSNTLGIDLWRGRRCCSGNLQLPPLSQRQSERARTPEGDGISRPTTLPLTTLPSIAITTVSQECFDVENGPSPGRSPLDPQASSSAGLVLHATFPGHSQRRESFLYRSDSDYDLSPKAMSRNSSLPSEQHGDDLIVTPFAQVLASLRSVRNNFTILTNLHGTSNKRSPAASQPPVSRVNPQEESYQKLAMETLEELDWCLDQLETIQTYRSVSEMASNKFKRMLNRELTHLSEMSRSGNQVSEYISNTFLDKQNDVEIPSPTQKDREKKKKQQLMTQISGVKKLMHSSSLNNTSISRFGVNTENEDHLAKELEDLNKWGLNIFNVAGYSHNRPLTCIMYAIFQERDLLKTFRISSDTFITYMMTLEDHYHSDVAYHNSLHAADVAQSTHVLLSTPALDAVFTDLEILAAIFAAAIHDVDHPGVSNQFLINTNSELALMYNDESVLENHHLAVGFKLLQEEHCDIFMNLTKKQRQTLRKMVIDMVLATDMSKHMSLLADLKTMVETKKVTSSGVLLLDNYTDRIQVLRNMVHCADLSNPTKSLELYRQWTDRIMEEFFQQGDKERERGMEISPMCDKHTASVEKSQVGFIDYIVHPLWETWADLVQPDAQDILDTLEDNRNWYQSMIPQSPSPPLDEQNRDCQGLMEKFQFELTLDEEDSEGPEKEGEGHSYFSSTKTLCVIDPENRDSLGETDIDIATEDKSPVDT

PDE4 A1 inhibitory effect at 20 nM (PDE4A1A) | PDE4 B1 inhibitory effect at 20 nM (PDE4B1) | PDE4 D2 inhibitory effect at 20 nM (PDE4D2) | SMILES
− | − | − | CCOc1nc([C@H](CS(C)(=O)=O)n2c(=O)[nH]c3c(C)c(-c4ccc(F)cc4)cnc32)ccc1OC [Ex. 7, (R)-3-(1-(6-ethoxy-5-methoxypyridin-2-yl)-2-(methylsulfonyl)ethyl)-6-(4-fluorophenyl)-7-methyl-1H-imidazo[4,5-b]pyridin-2(3H)-one]
+ | + | + | CCOc1nc([C@@H](CS(C)(=O)=O)n2c(=O)n(C)c3c(C)c(-c4ccccn4)cnc32)ccc1OC [Ex. 19, (S)-3-(1-(6-ethoxy-5-methoxypyridin-2-yl)-2-(methylsulfonyl)ethyl)-1,7-dimethyl-6-(pyridin-2-yl)-1H-imidazo[4,5-b]pyridin-2(3H)-one]
+ | + | + | CCOc1nc([C@@H](CS(C)(=O)=O)n2c(=O)[nH]c3c(C)c(-c4ccc(F)cc4)cnc32)ccc1OC(F)F [Ex. 63, (S)-3-(1-(5-(difluoromethoxy)-6-ethoxypyridin-2-yl)-2-(methylsulfonyl)ethyl)-6-(4-fluorophenyl)-7-methyl-1H-imidazo[4,5-b]pyridin-2(3H)-one]
+ | + | + | CCOc1nc([C@@H](CS(C)(=O)=O)n2c(=O)[nH]c3cc(-c4ccccn4)cnc32)ccc1OC [Ex. 122, (S)-6-(pyridin-2-yl)-3-(1-(6-ethoxy-5-methoxypyridin-2-yl)-2-(methylsulfonyl)ethyl)-1H-imidazo[4,5-b]pyridin-2(3H)-one]
+ | + | + | CCOc1nc([C@@H](CS(C)(=O)=O)n2c(=O)[nH]c3c(-c4ccccc4F)cccc32)ccc1OC [Ex. 205, (S)-1-(1-(6-ethoxy-5-methoxypyridin-2-yl)-2-(methylsulfonyl)ethyl)-4-(2-fluorophenyl)-1H-benzo[d]imidazol-2(3H)-one]
+ | + | + | CCOc1nc([C@H](CS(C)(=O)=O)n2c(=O)[nH]c3cc(-c4ccccc4F)ccc32)ccc1OC [Ex. 134, (R)-1-(1-(6-ethoxy-5-methoxypyridin-2-yl)-2-(methylsulfonyl)ethyl)-5-(2-fluorophenyl)-1H-benzo[d]imidazol-2(3H)-one]
+ | + | = | CCOc1nc([C@@H](CS(C)(=O)=O)n2c(=O)[nH]c3c(C)c(-c4ccccc4C(F)(F)F)cnc32)ccc1OC [Ex. 14, (S)-3-(1-(6-ethoxy-5-methoxypyridin-2-yl)-2-(methylsulfonyl)ethyl)-7-methyl-6-(2-(trifluoromethyl)phenyl)-1H-imidazo[4,5-b]pyridin-2(3H)-one]
− | − | − | CCOc1nc([C@@H](CS(C)(=O)=O)n2c(=O)[nH]c3c(C)c(-c4ccccc4C#N)cnc32)ccc1OC [Ex. 15, (S)-2-(3-(1-(6-ethoxy-5-methoxypyridin-2-yl)-2-(methylsulfonyl)ethyl)-7-methyl-2-oxo-2,3-dihydro-1H-imidazo[4,5-b]pyridin-6-yl)benzonitrile]
+ | + | + | CCOc1nc([C@@H](CS(C)(=O)=O)n2c(=O)n(C)c3cc(-c4cc(C)ccc4F)cnc32)ccc1OC [Ex. 114, (S)-6-(2-fluoro-5-methylphenyl)-3-(1-(6-ethoxy-5-methoxypyridin-2-yl)-2-(methylsulfonyl)ethyl)-1-methyl-1H-imidazo[4,5-b]pyridin-2(3H)-one]
+ | + | + | CCOc1nc([C@@H](CS(C)(=O)=O)n2c(=O)n(CC)c3cc(-c4ccccn4)cnc32)ccc1OC [Ex. 124, (S)-3-(1-(6-ethoxy-5-methoxypyridin-2-yl)-2-(methylsulfonyl)ethyl)-1-ethyl-6-(pyridin-2-yl)-1H-imidazo[4,5-b]pyridin-2(3H)-one]
+ | + | + | CCOc1nc([C@@H](CS(C)(=O)=O)n2c(=O)[nH]c3c(-c4ccccc4)cccc32)ccc1OC [Ex. 206, (S)-1-(1-(6-ethoxy-5-methoxypyridin-2-yl)-2-(methylsulfonyl)ethyl)-4-phenyl-1H-benzo[d]imidazol-2(3H)-one]
+ | + | + | CCOc1nc([C@@H](CS(C)(=O)=O)n2c(=O)[nH]c3cc(-c4cccc(C)c4C)cnc32)ccc1OC [Ex. 103, (S)-6-(2,3-dimethylphenyl)-3-(1-(6-ethoxy-5-methoxypyridin-2-yl)-2-(methylsulfonyl)ethyl)-1H-imidazo[4,5-b]pyridin-2(3H)-one]
+ | + | + | CCOc1nc([C@@H](CS(C)(=O)=O)n2c(=O)[nH]c3c(C)c(-c4cccc(C)c4C)cnc32)ccc1OC [Ex. 33, (S)-6-(2,3-dimethylphenyl)-3-(1-(6-ethoxy-5-methoxypyridin-2-yl)-2-(methylsulfonyl)ethyl)-7-methyl-1H-imidazo[4,5-b]pyridin-2(3H)-one]
+ | + | + | CCOc1nc([C@@H](CS(C)(=O)=O)n2c(=O)[nH]c3cc(-c4ccccc4F)cnc32)ccc1OC [Ex. 74, (S)-3-(1-(6-ethoxy-5-methoxypyridin-2-yl)-2-(methylsulfonyl)ethyl)-6-(2-fluorophenyl)-1H-imidazo[4,5-b]pyridin-2(3H)-one]
+ | + | + | CCOc1nc([C@@H](CS(C)(=O)=O)n2c(=O)n(C)c3cc(-c4ccc(F)cc4C)ccc32)ccc1OC [Ex. 170, (S)-5-(4-fluoro-2-methylphenyl)-1-(1-(6-ethoxy-5-methoxypyridin-2-yl)-2-(methylsulfonyl)ethyl)-3-methyl-1H-benzo[d]imidazol-2(3H)-one]
+ | + | + | CCOc1nc([C@H](CS(C)(=O)=O)n2c(=O)[nH]c3cc(-c4ccc(F)cc4)ccc32)ccc1OC [Ex. 136, (R)-1-(1-(6-ethoxy-5-methoxypyridin-2-yl)-2-(methylsulfonyl)ethyl)-5-(4-fluorophenyl)-1H-benzo[d]imidazol-2(3H)-one]
+ | + | + | CCOc1nc([C@@H](CS(C)(=O)=O)n2c(=O)n(C)c3cc(-c4cc(F)ccc4C)ccc32)ccc1OC [Ex. 172, (S)-5-(5-fluoro-2-methylphenyl)-1-(1-(6-ethoxy-5-methoxypyridin-2-yl)-2-(methylsulfonyl)ethyl)-3-methyl-1H-benzo[d]imidazol-2(3H)-one]
